Where two headings read alike, the source gives them in different places.
Tests used:
[1] = target: T1, human NMB receptor (BB1) (Homo sapiens, UniProt P28336); assay: BB1 binding assay ([125I][Tyr4]bombesin displacement, CHO-K1 membranes); details: for Ki: Table 1, human NMB receptor binding affinity, Ki from IC50 by Cheng-Prusoff, read-out: NMB Ki
T1 construct: expressed in transfected cells; membranes prepared from the cells
Procedure: (§1) In the following experiments, measurement of BB1 and BB2 binding was as follows. CHO-K1 cells stably expressing cloned human NMB (for (BB1 assay) and GRP receptors (for BB2 assay) were routinely grown in Ham's F12 culture medium supplemented with 10% foetal calf serum and 2 mM glutamine. For binding experiments, cells were harvested by trypsinization, and stored frozen at −70° C. in Ham's F12 culture medium containing 5% DMSO until required. On the day of use, cells were thawed rapidly, diluted with an excess of culture medium, and centrifuged for 5 minutes at 2000 g. Cells were resuspended in 50 mM Tris-HCl assay buffer (pH 7.4 at 21° C., containing 0.02% BSA, 40 μg/mL bacitracin, 2 μg/mL chymostatin, 4 μg/mL leupeptin, and 2 μM phosphoramidon), counted, and polytronned (setting 5, 10 sec) before centrifuging for 10 minutes at 28,000 g. The final pellet was resuspended in assay buffer to a final cell concentration of 1.5×10^5/mL. For binding assays, […] aliquots of membranes were incubated with [^125I][Tyr^4]bombesin (<0.1 nM) in the presence and absence of test compounds (final assay volume 250 μL) for 60 minutes and 90 minutes for NMB and GRP receptors, respectively. Nonspecific binding was defined by 1 μM bombesin. Assays were terminated by rapid filtration under vacuum onto Whatman GF/C filters presoaked in 0.2% PEI for >2 hours, and washed 50 mM Tris-HCl (pH 6.9 at 21° C.; 6×1 mL). Radioactivity bound was determined using a gamma counter.
(§2) All competition data was analysed using nonlinear regression utilizing iterative curve-plotting procedures in Prism® (GraphPad Software Inc., San Diego, USA). IC50 values were corrected to Ki values using the Cheng-Prusoff equation (Cheng Y., Prusoff W. H., Biochem. Pharmacol. 22: 3099-3108, 1973). obtained are listed in Table 1.

[2] = target: T2, human GRP receptor (BB2) (Homo sapiens, UniProt P30550); assay: BB2 binding assay ([125I][Tyr4]bombesin displacement, CHO-K1 membranes); details: for Ki: Table 1, human GRP receptor binding affinity, Ki from IC50 by Cheng-Prusoff, read-out: GRP Kj
T2 construct: expressed in transfected cells; membranes prepared from the cells
T2 sequence (P30550 whole entry): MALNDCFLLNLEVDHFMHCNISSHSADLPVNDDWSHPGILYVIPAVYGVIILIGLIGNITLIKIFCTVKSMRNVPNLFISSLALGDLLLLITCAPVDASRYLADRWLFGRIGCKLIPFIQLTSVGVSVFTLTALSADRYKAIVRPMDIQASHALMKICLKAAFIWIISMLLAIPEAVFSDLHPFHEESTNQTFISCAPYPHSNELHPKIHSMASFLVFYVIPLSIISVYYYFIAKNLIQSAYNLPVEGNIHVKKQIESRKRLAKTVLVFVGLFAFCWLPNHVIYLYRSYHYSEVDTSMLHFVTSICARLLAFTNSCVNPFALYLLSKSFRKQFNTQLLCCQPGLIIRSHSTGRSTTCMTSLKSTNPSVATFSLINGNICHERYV
Procedure: as §1, §2

[3] = Table 3, N-acyl derivatives of Intermediate III-7

T1 sequence (P28336 whole entry): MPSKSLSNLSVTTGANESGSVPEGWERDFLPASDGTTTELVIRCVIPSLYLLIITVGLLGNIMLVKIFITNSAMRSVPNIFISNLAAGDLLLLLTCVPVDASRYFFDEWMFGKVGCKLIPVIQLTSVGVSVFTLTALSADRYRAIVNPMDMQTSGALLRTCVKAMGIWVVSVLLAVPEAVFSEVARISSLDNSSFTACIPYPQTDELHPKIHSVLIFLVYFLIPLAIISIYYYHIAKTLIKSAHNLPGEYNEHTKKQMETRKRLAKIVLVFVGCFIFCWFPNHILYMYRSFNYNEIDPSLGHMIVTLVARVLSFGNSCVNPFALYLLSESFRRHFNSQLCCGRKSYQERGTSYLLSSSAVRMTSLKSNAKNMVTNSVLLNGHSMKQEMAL

Compound | IC50 [2, 3] [nM] | IC50 [1, 3] [nM] | IC50 [1] [nM] | also measured
COc1ccc(C2(CNC(=O)[C@](C)(Cc3ccccc3)Nc3nc(-c4ccc([N+](=O)[O-])cc4)co3)CCCCC2)nc1 [Example 12, (S)-N-[1-(5-Methoxy-pyridin-2-yl)-cyclohexylmethyl]-2-methyl-2-[4-(4-nitro-phenyl)-oxazol-2-ylamino]-3-phenyl-propionamide] |  |  |  | Ki [1]: 16 nM; Ki [2]: 2820 nM
C[C@@](Cc1c[nH]c2ccccc12)(NCCc1ccccc1)C(=O)NCC1(c2ccccn2)CCCCC1 [Example 25, (S)-3-(1H-Indol-3-yl)-2-methyl-2-phenylethylamino-N-(1-pyridin-2-yl-cyclohexylmethyl)-propionamide] |  |  |  | Ki [1]: 616 nM; Ki [2]: 2620 nM
C[C@@](Cc1c[nH]c2ccccc12)(NC(=O)c1ccccc1)C(=O)NCC1(c2ccccn2)CCCCC1 [Example 32, N—{(S)-2-(1H-Indol-3-yl)-1-methyl-1-[(1-pyridin-2-yl-cyclohexylmethyl)-carbamoyl]-ethyl}-benzamide] | > 10000 |  |  | 
Cc1ccc(C(=O)N[C@@](C)(Cc2c[nH]c3ccccc23)C(=O)NCC2(c3ccccn3)CCCCC2)cc1 [Example 33, N—{(S)-2-(1H-Indol-3-yl)-1-methyl-1-[(1-pyridin-2-yl-cyclohexylmethyl)-carbamoyl]-ethyl}-4-methyl-benzamide] | > 10000 |  |  | 
C[C@@](Cc1c[nH]c2ccccc12)(NC(=O)c1ccc(Cl)cc1)C(=O)NCC1(c2ccccn2)CCCCC1 [Example 34, 4-Chloro-N—{(S)-2-(1H-indol-3-yl)-1-methyl-1-[(1-pyridin-2-yl-cyclohexyl-methyl)-carbamoyl]-ethyl}-benzamide] | > 10000 | 1350 |  | 
COc1ccc(C(=O)N[C@@](C)(Cc2c[nH]c3ccccc23)C(=O)NCC2(c3ccccn3)CCCCC2)cc1 [Example 35, N—{(S)-2-(1H-Indol-3-yl)-1-methyl-1-[(1-pyridin-2-yl-cyclohexylmethyl)-carbamoyl]-ethyl}-4-methoxy-benzamide] | > 10000 | 2880 |  | 
C[C@@](Cc1c[nH]c2ccccc12)(NC(=O)c1ccc([N+](=O)[O-])cc1)C(=O)NCC1(c2ccccn2)CCCCC1 [Example 36, N—{(S)-2-(1H-Indol-3-yl)-1-methyl-1-[(1-pyridin-2-yl-cyclohexylmethyl)-carbamoyl]-ethyl}-4-nitro-benzamide] | > 10000 | 343 |  | 
C[C@@](Cc1c[nH]c2ccccc12)(NC(=O)c1ccc(S(C)(=O)=O)cc1)C(=O)NCC1(c2ccccn2)CCCCC1 [Example 37, N—{(S)-2-(1H-Indol-3-yl)-1-methyl-1-[(1-pyridin-2-yl-cyclohexylmethyl)-carbamoyl]-ethyl}-4-methanesulfonyl-benzamide] | > 10000 | 2270 |  | 
C[C@@](Cc1c[nH]c2ccccc12)(NC(=O)c1cccc(C#N)c1)C(=O)NCC1(c2ccccn2)CCCCC1 [Example 38, 3-Cyano-N—{(S)-2-(1H-indol-3-yl)-1-methyl-1-[(1-pyridin-2-yl-cyclohexylmethyl)-carbamoyl]-ethyl}-benzamide] | > 10000 | 2040 |  | 
C[C@@](Cc1c[nH]c2ccccc12)(NC(=O)c1cccc(Cl)c1)C(=O)NCC1(c2ccccn2)CCCCC1 [Example 39, 3-Chloro-N—{(S)-2-(1H-indol-3-yl)-1-methyl-1-[(1-pyridin-2-yl-cyclohexyl-methyl)-carbamoyl]-ethyl}-benzamide] | > 10000 | 1270 |  | 
COc1cccc(C(=O)N[C@@](C)(Cc2c[nH]c3ccccc23)C(=O)NCC2(c3ccccn3)CCCCC2)c1 [Example 40, N—{(S)-2-(1H-Indol-3-yl)-1-methyl-1-[(1-pyridin-2-yl-cyclohexylmethyl)-carbamoyl]-ethyl}-3-methoxy-benzamide] | > 10000 | 2860 |  | 
C[C@@](Cc1c[nH]c2ccccc12)(NC(=O)c1cccc(S(C)(=O)=O)c1)C(=O)NCC1(c2ccccn2)CCCCC1 [Example 41, N—{(S)-2-(1H-Indol-3-yl)-1-methyl-1-[(1-pyridin-2-yl-cyclohexylmethyl)-carbamoyl]-ethyl}-3-methanesulfonyl-benzamide] | > 10000 | 3050 |  | 
Cc1cccc(C(=O)N[C@@](C)(Cc2c[nH]c3ccccc23)C(=O)NCC2(c3ccccn3)CCCCC2)c1 [Example 43, N—{(S)-2-(1H-Indol-3-yl)-1-methyl-1-[(1-pyridin-2-yl-cyclohexylmethyl)-carbamoyl]-ethyl}-3-methyl-benzamide] | > 10000 | 2350 |  | 
C[C@@](Cc1c[nH]c2ccccc12)(NC(=O)c1ccccc1Cl)C(=O)NCC1(c2ccccn2)CCCCC1 [Example 44, 2-Chloro-N—{(S)-2-(1H-indol-3-yl)-1-methyl-1-[(1-pyridin-2-yl-cyclohexyl-methyl)-carbamoyl]-ethyl}-benzamide] | > 10000 | 3230 |  | 
C[C@@](Cc1c[nH]c2ccccc12)(NC(=O)c1ccccc1[N+](=O)[O-])C(=O)NCC1(c2ccccn2)CCCCC1 [Example 45, N—{(S)-2-(1H-Indol-3-yl)-1-methyl-1-[(1-pyridin-2-yl-cyclohexylmethyl)-carbamoyl]-ethyl}-2-nitro-benzamide] | > 10000 | 4580 |  | 
COc1ccccc1C(=O)N[C@@](C)(Cc1c[nH]c2ccccc12)C(=O)NCC1(c2ccccn2)CCCCC1 [Example 46, N—{(S)-2-(1H-Indol-3-yl)-1-methyl-1-[(1-pyridin-2-yl-cyclohexylmethyl)-carbamoyl]-ethyl}-2-methoxy-benzamide] | > 10000 | 2560 |  | 
C[C@@](Cc1c[nH]c2ccccc12)(NS(=O)(=O)c1cccc2cccc([N+](=O)[O-])c12)C(=O)NCC1(c2ccccn2)CCCCC1 [Example 146] |  |  | 177 | 

Compound | IC50 [2, 3] [nM] | IC50 [1, 3] [nM] | IC50 [1] [nM] | also measured
C[C@@](Cc1c[nH]c2ccccc12)(NS(=O)(=O)c1cc([N+](=O)[O-])ccc1Cl)C(=O)NCC1(c2ccccn2)CCCCC1 [Example 147] |  |  | 374 | 
C[C@@](Cc1c[nH]c2ccccc12)(NS(=O)(=O)c1c(Cl)cc(Cl)cc1Cl)C(=O)NCC1(c2ccccn2)CCCCC1 [Example 148] |  |  | 215 | 
C[C@@](Cc1c[nH]c2ccccc12)(NS(=O)(=O)c1ccc(Cl)cc1[N+](=O)[O-])C(=O)NCC1(c2ccccn2)CCCCC1 [Example 149] |  |  | 513 | 
C[C@@](Cc1c[nH]c2ccccc12)(NS(=O)(=O)c1ccc(S(=O)(=O)c2ccccc2)s1)C(=O)NCC1(c2ccccn2)CCCCC1 [Example 150] |  |  | 297 | 
C[C@@](Cc1c[nH]c2ccccc12)(NS(=O)(=O)c1ccc(OC(F)(F)F)cc1)C(=O)NCC1(c2ccccn2)CCCCC1 [Example 151] |  |  | 635 | 
COC(=O)c1ccccc1S(=O)(=O)N[C@@](C)(Cc1c[nH]c2ccccc12)C(=O)NCC1(c2ccccn2)CCCCC1 [Example 155] |  |  | 242 | 
CC(Cc1c[nH]c2ccccc12)(NS(=O)(=O)c1cc(Cl)sc1Cl)C(=O)NCC1(c2ccccn2)CCCCC1 (stereo not drawn) [Example 157] |  |  |  | IC50 [2]: > 10000 nM
COc1cc(C)ccc1S(=O)(=O)N[C@@](C)(Cc1c[nH]c2ccccc12)C(=O)NCC1(c2ccccn2)CCCCC1 [Example 159] |  |  | 445 | 
C[C@@](Cc1c[nH]c2ccccc12)(NS(=O)(=O)c1ccc(-c2ccccn2)s1)C(=O)NCC1(c2ccccn2)CCCCC1 [Example 160] |  |  | 344 | 
C[C@@](Cc1c[nH]c2ccccc12)(NS(=O)(=O)c1cnc(Cl)c(Br)c1)C(=O)NCC1(c2ccccn2)CCCCC1 [Example 161] |  |  | 187 | 
C[C@@](Cc1c[nH]c2ccccc12)(NS(=O)(=O)c1ccc([N+](=O)[O-])cc1[N+](=O)[O-])C(=O)NCC1(c2ccccn2)CCCCC1 [Example 162] |  |  | 475 | 
C[C@@](Cc1c[nH]c2ccccc12)(NS(=O)(=O)c1ccc(S(C)(=O)=O)cc1)C(=O)NCC1(c2ccccn2)CCCCC1 [Example 163] |  |  | 1040 | 
CC(C)(C)c1ccc(S(=O)(=O)N[C@@](C)(Cc2c[nH]c3ccccc23)C(=O)NCC2(c3ccccn3)CCCCC2)cc1 [Example 164] |  |  | 406 | 
Cc1cc(S(=O)(=O)N[C@@](C)(Cc2c[nH]c3ccccc23)C(=O)NCC2(c3ccccn3)CCCCC2)c(Cl)cc1Cl [Example 165] |  |  | 172 | 
C[C@@](Cc1c[nH]c2ccccc12)(NS(=O)(=O)c1ccc(Cl)c(C(F)(F)F)c1)C(=O)NCC1(c2ccccn2)CCCCC1 [Example 166] |  |  | 627 | 
CCCCc1ccc(S(=O)(=O)N[C@@](C)(Cc2c[nH]c3ccccc23)C(=O)NCC2(c3ccccn3)CCCCC2)cc1 [Example 168] |  |  | 492 | 
Dimethylamino-N—{(S)-2-(1H-indol-3-yl)-1-methyl-1-[(1-pyridin-2-yl-cyclohexyl-methyl)-carbamoyl]-ethyl}-benzamide [Example 42] | > 10000 |  |  | 
